The values below come from US11820766B2, “Monoacylglycerol lipase modulators” (Janssen Pharmaceutica NV, priority 2018, dated 2023).

The first test addresses T1, human MGL from HeLa cells (Homo sapiens, UniProt Q99685).
T1 construct: combining endogenously expressed MGL from HeLa cells with test compounds; endogenous in cells; host or cells: HeLa cells / cell homogenates
T1 sequence (Q99685 1-303): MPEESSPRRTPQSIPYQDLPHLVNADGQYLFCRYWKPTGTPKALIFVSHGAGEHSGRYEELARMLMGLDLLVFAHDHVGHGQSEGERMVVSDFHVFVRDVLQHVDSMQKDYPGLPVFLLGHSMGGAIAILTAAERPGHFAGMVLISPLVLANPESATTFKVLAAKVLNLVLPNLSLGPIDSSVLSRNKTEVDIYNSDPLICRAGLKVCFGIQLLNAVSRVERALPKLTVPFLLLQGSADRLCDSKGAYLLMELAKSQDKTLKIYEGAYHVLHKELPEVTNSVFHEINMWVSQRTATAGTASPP
Nature of the test: In vitro MGL activity assay: [glycerol-1,3-3H]-oleyl glycerol cleavage by MGL from HeLa cells. To be noted: 300 nM [Glycerol-1,3-3H]-oleyl glycerol, one hour. The format is biochemical. From the text:
MGL is the predominant hydrolase in HeLa cells/cell homogenates.
`C[C@H]1c2nn(C)c(-c3cc(F)c(F)c(F)c3)c2CCN1C(=O)c1cccn2ccnc12` [Example 392, [(7S)-2,7-Dimethyl-3-(3,4,5-trifluorophenyl)-5,7-dihydro-4H-pyrazolo[3,4-c]pyridin-6-yl]-imidazo[1,2-a]pyridin-8-yl-methanone] displayed an IC50 of 711 nM.
With `C[C@H]1c2nn(C)c(-c3cc(F)c(F)c(F)c3)c2CCN1C(=O)c1ccc2nccn2c1` [Example 391, [(7S)-2,7-Dimethyl-3-(3,4,5-trifluorophenyl)-5,7-dihydro-4H-pyrazolo[3,4-c]pyridin-6-yl]-imidazo[1,2-a]pyridin-6-yl-methanone], the 50% inhibitory concentration (IC50) was determined as 103 nM.
Same read-out and setting: the value for `C[C@H]1c2nn(C)c(-c3ccc(C(F)(F)F)cc3)c2CCN1C(=O)c1ccc2ncccc2c1` [Example 494, [(7S)-2,7-Dimethyl-3-[4-(trifluoromethyl)phenyl]-5,7-dihydro-4H-pyrazolo[3,4-c]pyridin-6-yl]-(6-quinolyl)methanone] was 54.9 nM.
The compound `Cc1cc(F)cc(-c2c3c(nn2C)[C@H](C)N(C(=O)c2ccc4ncccc4c2)CC3)c1` [Example 511, [(7S)-3-(3-Fluoro-5-methyl-phenyl)-2,7-dimethyl-5,7-dihydro-4H-pyrazolo[3,4-c]pyridin-6-yl]-(6-quinolyl)methanone] had an IC50 of 6.58 nM.

Still in this test, the particulars now being: 300 nM [Glycerol-1,3-3H]-oleyl glycerol, one hour incubation.
Turning to `COc1cccc(C(=O)N2CCc3c(nn(C)c3-c3cc(F)c(F)c(F)c3)[C@@H]2C)c1Cl` [Example 191, (S)-(2-Chloro-3-methoxyphenyl)(2,7-dimethyl-3-(3,4,5-trifluorophenyl)-2,4,5,7-tetrahydro-6H-pyrazolo[3,4-c]pyridin-6-yl)methanone], the IC50 stood at 2.56 nM.
With `Cn1nc2c(c1-c1ccccc1)CCN(C(=O)c1ccc3[nH]ncc3c1)C2` [Example 64, (1H-Indazol-5-yl)(2-methyl-3-phenyl-2,4,5,7-tetrahydro-6H-pyrazolo[3,4-c]pyridin-6-yl)methanone], the 50% inhibitory concentration (IC50) is 56.2 nM.
Regarding `CC1c2nn(C)c(-c3cc(F)cc(Cl)c3)c2CCN1C(=O)c1ccc2ncccc2c1` (stereo not drawn) [Example 177, (3-(3-Chloro-5-fluorophenyl)-2,7-dimethyl-2,4,5,7-tetrahydro-6H-pyrazolo[3,4-c]pyridin-6-yl)(quinolin-6-yl)methanone], half-maximal inhibition (IC50) was put at 15.9 nM. Compared with the last compound, the IC50 is about 3.5-fold lower.
Turning to `Cn1nc2c(c1-c1ccccc1)CCN(C(=O)c1cccc3ccccc13)C2` [Example 1, (2-Methyl-3-phenyl-2,4,5,7-tetrahydro-6H-pyrazolo[3,4-c]pyridin-6-yl)(naphthalen-1-yl)methanone], the midpoint of inhibition, the IC50, lay at 13 nM.
Regarding `Cc1cc(C(=O)N2CCc3c(nn(C)c3-c3cc(F)c(F)c(F)c3)[C@@H]2C)cc2cn[nH]c12` [Example 210, (S)-(2,7-Dimethyl-3-(3,4,5-trifluorophenyl)-2,4,5,7-tetrahydro-6H-pyrazolo[3,4-c]pyridin-6-yl)(7-methyl-1H-indazol-5-yl)methanone], it took 0.6 nM to reach half-maximal inhibition (IC50). This IC50 lies about 22-fold lower than the previous one.
The compound `C[C@H]1c2nn(C)c(-c3cc(F)c(F)c(F)c3)c2CCN1C(=O)c1nccc2occc12` [Example 214, (S)-(2,7-Dimethyl-3-(3,4,5-trifluorophenyl)-2,4,5,7-tetrahydro-6H-pyrazolo[3,4-c]pyridin-6-yl)(furo[3,2-c]pyridin-4-yl)methanone] had an IC50 of 23.5 nM.
Compound `C[C@H]1c2nn(C)c(-c3cc(F)cc(F)c3)c2CCN1C(=O)c1cnc2ccoc2c1` [Example 153, (S)-(3-(3,5-Difluorophenyl)-2,7-dimethyl-2,4,5,7-tetrahydro-6H-pyrazolo[3,4-c]pyridin-6-yl)(furo[3,2-b]pyridin-6-yl)methanone] displayed a concentration for half-maximal inhibition (IC50) of 15.4 nM.
For `C[C@H]1c2nn(C)c(-c3cc(F)c(F)c(F)c3)c2CCN1C(=O)c1cccc2cccnc12` [Example 236, (S)-(2,7-Dimethyl-3-(3,4,5-trifluorophenyl)-2,4,5,7-tetrahydro-6H-pyrazolo[3,4-c]pyridin-6-yl)(quinolin-8-yl)methanone], 5.79 nM corresponded to half-maximal inhibition (IC50). This IC50 lies about 2.7-fold lower than the previous one.
